Experimental data as given in US20230024584A1, “ANTI-CANCER COMPOSITIONS AND METHODS” (University of Kentucky Research Foundation, priority 2019, published 2023).

Columns and labels:
Type in all cases: cell-based
breast cancer cells = test: Cell cycle analysis, breast cancer cells; settings: 5 μM; 24, 48 and 72 h
Description: Initially, 0.1˜0.3 million of breast cancer cells were seeded into 6 cm culture dish and cultured overnight; then, the culture media were switched into FBS free medium for serum-starvation for 24 h for cell synchronization. After synchronization, the culture media were changed into FBS-containing medium and vehicle control (DMSO) or lomitapide (final concentration: 5 μM) were added into corresponding dishes. After 24, 48 and 72 h culture, cells were harvested, fixed by ice-cold ethanol, stained by PI for flow cytometry analysis of cell cycle. The results are presented as mean±standard deviation (n=3). * p<0.05, compared to vehicle control (negative control) treatment group.

[1] = system: H1975, PC9, PC9GR4 and H460 cells; test: Clonogenic assay, lung cancer cell lines; settings: 1.25, 2.5 or 5 μM for 72 h, then 10 days culture
Description: Clonogenic assays were also performed to determine the effect of lomitapide treatment on various lung cancer cell lines, with data reflected in FIGS. 28A-28E. Initially, 100 H1975, PC9, PC9GR4, or H460 cells were seeded into 6-cm cell culture dishes. After overnight culture, vehicle control (DMSO) or lomitapide (final concentration: 1.25, 2.5 or 5 μM) were added into the corresponding dishes. After 72 h culture, the DMSO- or lomitapide-containing media were removed and the fresh culture media were added in followed by additional 10 days culture. The culture media were replaced with fresh media every three days. At the end of cell culture, the final clones in dishes were fixed by 4% paraformaldehyde and stained with crystal violet. FIG. 28A includes representative images from each treatment groups. FIGS. 28B-28E include quantitation of clone numbers (mean±standard deviation, n=3). * p<0.05, compared to vehicle control (negative control) treatment group.

[2] = system: SUM159, LM2, MCF-7, 4T1, 4T1luc and MDA-MB-453 cells; test: Clonogenic assay, breast cancer cell lines; settings: 1.25, 2.5 or 5 μM for 72 h, then 10 days culture
Description: Clonogenic assays were also performed to determine the effect of lomitapide treatment on various breast cancer cell lines, with data reflected in FIGS. 22A-22G. Initially, 100 SUM159, LM2, MCF-7, 4T1 or 4T1^luc cells, or 1000 MDA-MB-453 cells were seeded into 6-cm cell culture dishes. After overnight culture, vehicle control (DMSO) or lomitapide (final concentration: 1.25, 2.5 or 5 μM) were added into the corresponding dishes. After 72 h culture, the DMSO- or lomitapide-containing media were removed and the fresh culture media were added in followed by additional 10 days culture. The culture media were replaced with fresh media every three days. At the end of cell culture, the final clones in dishes were fixed by 4% paraformaldehyde and stained with crystal violet. FIG. 22A includes representative images from each treatment groups, and FIGS. 22B-22G include the quantitation of clone numbers (mean standard deviation, n=3). * p<0.05, compared to vehicle control (negative control) treatment group.

[3] = system: SUM159, LM2, MCF-7, MB-MDA-453, 4T1 and 4T1luc cells; test: MTT assay, breast cancer cell lines; settings: 1.25, 2.5 and 5 μM; 24, 48, 72 h
Description: With reference to FIGS. 21A-21F, MTT assays were performed to determine the effect of lomitapide treatment on various breast cancer cell lines. Initially, 2500 SUM159 or LM2 cells, 5000 MCF-7 or MB-MDA-453 cells, 1000 4T1 or 4T1^1uc cells were seeded into 96-well plates. After overnight culture, vehicle (DMSO) or lomitapide (final concentration: 1.25, 2.5 and 5 μM) were added into the corresponding wells. After 24 h, 48 h, and 72 h incubation, the culture media were aspirated off and 50 μl of 0.5 mg/mL of MTT containing medium was added into each well. After 3 h incubation, 200 μl of DMSO were added into each well. The OD value of each well was read under the wavelength of 570 nm. The results are presented as mean±standard deviation (n=6) * p<0.05, compared to vehicle control (negative control) treatment group.

PC9GR4 and A549 cells = test: Sphere formation assay, lung cancer cells; settings: 1.25, 2.5 or 5 μM, 10 days
Description: With reference to FIGS. 30A and 30B, studies were also conducted to determine the effect of lomitapide treatment on the cancer stem cell-like property of lung cancer cells. Initially, 2500 lung cancer PC9GR4 or A549 cells were seeded into […] 24-well plates; meanwhile, vehicle control (DMSO) or lomitapide (final concentration: 1.25, 2.5 or 5 μM) were added into corresponding wells. After 10-days continuous culture, the final spheres formed were imaged and counted under an inverted phase-contrast microscope. FIG. 30A includes representative sphere images from each treatment groups. FIG. 30B includes the quantitation of sphere numbers (mean±standard deviation, n=3). * p<0.05, compared to vehicle control (negative control) treatment group.

For lomitapide, the cell cycle distribution (breast cancer cells) was “significant G1 phase cell cycle arrest”, the “lung cancer cell growth (clone numbers)” value [1] was “significantly reduces lung cancer cell growth” and the “breast cancer cell growth (clone numbers)” value [2] was “significantly reduces breast cancer cell growth”. For the same substance, the “breast cancer cell growth (MTT)” value [3] was “significantly reduces breast cancer cell growth” and the “cancer stem cell-like property (sphere numbers)” value (PC9GR4 and A549 cells) was “significantly reduces cancer stem cell-like property”.
